Reference: US6022885A, “Pyrrolidine and thiazole derivatives with antibacterial and . metallo-.beta-lactamase inhibitory properties” (SmithKline Beecham p.l.c., priority 1995, dated 2000)
Read-outs that look alike come from different tables or passages of the source. Blank lines part the entries; values can stand above or below the compound they belong to.

Legend:
[1] = molecular target: B. fragilis CfiA metallo-β-lactamase (Bacteroides fragilis, UniProt P25910); assay: I50 screen, nitrocefin reporter substrate; assay type: biochemical; conditions: 25 mM PIPES pH 7, 37° C., nitrocefin 91 μM, 5 minute preincubation, Zn^2+ 100 μM
Sequence of B. fragilis CfiA metallo-β-lactamase (P25910 19-249): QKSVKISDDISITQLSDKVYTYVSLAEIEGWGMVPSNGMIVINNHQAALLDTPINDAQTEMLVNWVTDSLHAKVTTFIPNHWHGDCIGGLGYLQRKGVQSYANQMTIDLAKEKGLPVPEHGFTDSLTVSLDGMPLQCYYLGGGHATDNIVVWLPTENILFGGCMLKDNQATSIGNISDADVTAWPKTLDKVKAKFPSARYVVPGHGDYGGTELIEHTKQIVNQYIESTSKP
Description: (§1) The inhibitory activity of the compounds of the invention was measured in 25 mM PIPES pH 7 buffer at 10 concentrations (1000, 333, 111, 37, 12.3, 4.1, 1.4 0.46, 0.15 and 0.05 μM) at 37° C. using nitrocefin (91 μM, final concentration) as the reporter substrate. The assays were performed with a 5 minute preincubation of enzyme and inhibitor and were conducted in the presence of added zinc sulphate (Zn^2+ 100 μM, final concentration). The methodology is described in detail in the following references: Payne et al (1991), J. Antimicrob. Chemother., 28:255; Payne et al (1994), Antimicrob. Agents and Chemother., 38:767.

B. fragilis 460 = assay: Antibacterial activity (MIC) alone and in combination with carbapenem antibiotics, B. fragilis 460; assay type: cell-based, Bacteroides fragilis
Source text: (§2) Antibacterial activity of compounds of the invention in combination with carbapenem antibiotics against strains of Bacteroides fragllis which produce metallo-β-lactamase:
(§3) [MIC =minimum inhibitory concentration (μg/ml)]

B. fragilis 262 = assay: Antibacterial activity (MIC) alone and in combination with carbapenem antibiotics, B. fragilis 262; assay type: cell-based, Bacteroides fragilis
Source text: as §2, §3

[2] = molecular target: T1, Bacillus cereus II metallo-β-lactamase (Bacillus cereus, UniProt P04190); assay: I50 screen, nitrocefin reporter substrate; assay type: biochemical; conditions: 25 mM PIPES pH 7, 37° C., nitrocefin 91 μM, 5 minute preincubation, Zn^2+ 100 μM
T1 construct: nitrocefin assay with added zinc
T1 sequence (P04190 31-257): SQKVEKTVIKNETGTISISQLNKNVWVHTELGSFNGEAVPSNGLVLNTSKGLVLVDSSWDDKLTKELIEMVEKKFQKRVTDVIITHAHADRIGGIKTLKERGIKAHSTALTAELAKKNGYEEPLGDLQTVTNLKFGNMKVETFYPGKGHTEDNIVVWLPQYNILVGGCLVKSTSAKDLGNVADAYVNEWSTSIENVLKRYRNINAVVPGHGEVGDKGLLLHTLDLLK
Description: as §1

[3] = molecular target: T2, Xanthomonas maltophilia L-1 metallo-β-lactamase (Stenotrophomonas maltophilia, UniProt P52700); assay: I50 screen, nitrocefin reporter substrate; assay type: biochemical; conditions: 25 mM PIPES pH 7, 37° C., nitrocefin 91 μM, 5 minute preincubation, Zn^2+ 100 μM
T2 construct: nitrocefin assay with added zinc
T2 sequence (P52700 34-290): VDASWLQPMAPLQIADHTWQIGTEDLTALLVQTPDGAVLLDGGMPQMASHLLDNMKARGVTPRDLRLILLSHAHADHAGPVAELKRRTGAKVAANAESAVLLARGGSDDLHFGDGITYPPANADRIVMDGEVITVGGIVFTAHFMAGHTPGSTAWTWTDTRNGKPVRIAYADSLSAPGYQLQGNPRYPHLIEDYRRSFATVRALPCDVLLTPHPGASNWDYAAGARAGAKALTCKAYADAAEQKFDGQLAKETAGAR
Description: as §1

[4] = read-out: I50 values against B. fragilis CfiA metallo-β-lactamase
[5] = I50 values against B. fragilis CfiA metallo-β-lactamase
[6] = Bacteroides fragilis, alone, B. fragilis 460, CfiA, read-out: MIC alone
[7] = Bacteroides fragilis, alone, B. fragilis 262, CfiA, read-out: MIC alone

SMILES: CC1(C)SCN(C(=O)C(CS)Cc2ccccc2)[C@@H]1C(=O)O (stereo partly drawn) [Example 12, 3-[2'(RS)-benzyl-3'-mercaptopropionyl]-4(R)-carboxy-5,5-dimethylthiazolidine]
- IC50 [1, 4]: < 500 µM

SMILES: O=C(O)[C@H]1CCCN1C(=O)C(CS)Cc1ccccc1 (stereo partly drawn) [Example 16, N-[2'(PS)-benzyl-3'-mercaptopropionyl]-D-proline]
- IC50 [1, 4]: < 500 µM

SMILES: CC1(C)SCN(C(=O)C(CS)Cc2ccccc2)[C@H]1C(=O)O (stereo partly drawn) [Example 2, 3-[2'(RS)-benzyl-3'-mereaptopropionyl]-4(S)-carboxy-5,5-dimethylthiazolidine]
- IC50 [1, 4]: < 1 µM

SMILES: CC(CS)C(=O)N1CSC(C)(C)C1C(=O)O [Example 23, 3-[Mercapto-2'(S)-methylpropionyl]-4(R)-carboxy-5,5-dimethylthiazolidine]
- IC50 [1, 4]: < 500 µM

SMILES: C[C@@H](O)[C@H]1C(=O)N2C(C(=O)O)=C(S[C@@H]3CN[C@H](C(=O)N(C)C)C3)[C@H](C)[C@H]12 [Meropenem]
- MIC (B. fragilis 460; Bacteroides fragilis, 460, read-out: MIC alone): 128 µg/mL
- MIC (B. fragilis 262; Bacteroides fragilis, 262, read-out: MIC alone): 128 µg/mL

SMILES: CC(CS)C(=O)N1CSC(C)(C)[C@@H]1C(=O)O (stereo partly drawn) [Example 14, 3-[3'-Mercapto-2'(S)-methylpropionyl]-4(S)-carboxy-5,5-dimethylthiazolidine]
- IC50 [1, 4]: < 500 µM

SMILES: CC(CS)C(=O)N1CSC(C)(C)C1C(=O)O [Example 21, 3-[3'-Mercapto-2'(R)-methylpropionyl]-4(S)-carboxy-5,5-dimethylthiazolidine]
- activity against Bacillus cereus II metallo-β-lactamase [2]: weak but significant activity
- activity against Xanthomonas maltophilia L-1 metallo-β-lactamase [3]: weak but significant activity

SMILES: CC1(C)SCN(C(=O)CCS)[C@H]1C(=O)O [Example 8, 3-[3'-Mercaptopropionyl]-4(S)-carboxy-5,5-dimethylthiazolidine]
- IC50 [1, 4]: < 500 µM

SMILES: CC1(C)SCN(C(=O)C(CS)Cc2ccccc2)C1C(=O)O [Example 19, 3-[2'(R)-benzyl-3'-mercaptopropionyl]-4(S)-carboxy-5,5-dimethylthiazolidine]
- activity against Bacillus cereus II metallo-β-lactamase [2]: weak but significant activity
- activity against Xanthomonas maltophilia L-1 metallo-β-lactamase [3]: weak but significant activity

SMILES: C[C@H](CS)C(=O)N1CCC[C@@H]1C(=O)O [Example 6, N-(3'-mercapto-2'(S)-methylpropionyl)-D-proline]
- IC50 [1, 5]: < 500 µM

SMILES: CC1(C)[C@H](C(=O)O)N(C(=O)[C@@H](CS)Cc2ccccc2)C[S+]1[O-] (single isomer, unassigned) [Example 26]
- IC50 [1, 4]: < 1 µM

SMILES: CC1(C)[C@H](C(=O)O)N(C(=O)[C@@H](CS)Cc2ccccc2)C[S+]1[O-] (single isomer, unassigned) [Example 27]
- activity against Bacillus cereus II metallo-β-lactamase [2]: weak but significant activity
- activity against Xanthomonas maltophilia L-1 metallo-β-lactamase [3]: weak but significant activity

SMILES: CC(CS)C(=O)N1CCC[C@@H]1C(=O)O (stereo partly drawn) [Example 4, N-[3'-Mercapto-2'(RS)-methylpropionyl]-D-proline]
- IC50 [1, 5]: < 500 µM

SMILES: C[C@H](CS)C(=O)N1CCC[C@H]1C(=O)O [captopril, N-(3'-mercapto-2'(S)-methylpropionyl)-L-proline, reference compound]
- activity against Bacillus cereus II metallo-β-lactamase [2]: weak but significant activity
- activity against Xanthomonas maltophilia L-1 metallo-β-lactamase [3]: weak but significant activity

Results, then the compound that gave them:

- IC50 [1, 4]: < 500 µM
SMILES: O=C(O)[C@@H]1CCCN1C(=O)C(CS)Cc1ccccc1 (stereo partly drawn) [Example 25, N-[2'(RS)-benzyl-3'-mercaptopropionyl]-L-proline]

- IC50 [1, 4]: < 500 µM
SMILES: O=C(O)[C@H]1CSCN1C(=O)C(CS)CCCc1ccccc1 (stereo partly drawn) [Example 33, 3-[2'(RS)-mercaptomethyl-5'-phenylpentanoyl]-4(S)-carboxythiazolidine]

- IC50 [1, 4]: < 500 µM
SMILES: CC1(C)SCN(C(=O)C(CS)CCc2ccccc2)[C@H]1C(=O)O (stereo partly drawn) [Example 32, 3-[2'(RS)-mercaptomethyl-4'-phenylbutanoyl]-4(S)-carboxy-5,5-dimethylthiazolidine]

- IC50 [1, 4]: < 500 µM
SMILES: O=C(O)[C@H]1CSCN1C(=O)C(CS)Cc1ccccc1 (single isomer, unassigned) [Example 30, 3-[2'(R or S)-benzyl-3'-mercaptopropionyl]-4(S)-carboxythiazolidine]

- IC50 [1, 4]: < 1 µM
- MIC (B. fragilis 460; [6]): > 512 µg/mL
- MIC (B. fragilis 262; [7]): > 512 µg/mL
SMILES: CC1(C)SCN(C(=O)[C@@H](CS)Cc2ccccc2)[C@H]1C(=O)O [Example 20, 3-[2'(S)-benzyl-3'-mercaptopropionyl]-4(S)-carboxy-5,5-dimethylthiazolidine]

- IC50 [1, 4]: < 500 µM
SMILES: CC1(C)SCN(C(=O)[C@H](CS)Cc2ccccc2)[C@@H]1C(=O)O [Example 29, 3-[2'(R)-benzyl-3'-mercaptopropionyl]-4(R)-carboxy-5,5-dimethylthiazolidine]

- IC50 [1, 4]: < 500 µM
SMILES: O=C(O)[C@H]1CSCN1C(=O)C(CS)Cc1ccccc1 (single isomer, unassigned) [Example 31, 3-[2'(S or R)-benzyl-3'-mercaptopropionyl]-4(S)-carboxythiazolidine]

- IC50 [1, 4]: < 500 µM
SMILES: O=C(O)[C@H]1CSCN1C(=O)C(CS)Cc1ccccc1 (stereo partly drawn) [Example 18, 3-[2'(RS)-benzyl-3'-mercaptopropionyl]-4(S)-carboxythiazolidine]

- IC50 [1, 4]: < 500 µM
SMILES: CC1(C)SCN(C(=O)[C@@H](CS)Cc2ccccc2)[C@@H]1C(=O)O [Example 28, 3-[2'(S)-benzyl-3'-mercaptopropionyl]-4(R)-carboxy-5,5-dimethylthiazolidine]

- MIC (B. fragilis 460; [6]): 16 µg/mL
- MIC (B. fragilis 262; [7]): 4 µg/mL
SMILES: C[C@@H](O)[C@H]1C(=O)N2C(C(=O)O)=C(SCCN=CN)C[C@H]12 [Imipenem]
